Data from the NIST ThermoML archive (doi:10.1016/j.jct.2009.05.004).

Assay: mn = molality of the nth substance listed, in mol/kg
Conditions: Liquid, Vibrating tube method

[Br-].[Br-].[Zn+2] [zinc bromide] + CCO
Conditions | mass density [kg/m3]
333.15 K, 25621 kPa, m1 = 0.3043 | 825.37
333.15 K, 29810 kPa, m1 = 0.4384 | 848.46
333.15 K, 29875 kPa, m1 = 1.49 | 995.4
333.15 K, 29941 kPa, m1 = 0.05681 | 791.79
333.15 K, 34256 kPa, m1 = 0.3043 | 832.31
333.15 K, 34920 kPa, m1 = 0.4384 | 852.42
333.15 K, 34965 kPa, m1 = 1.49 | 999.47
333.15 K, 39957 kPa, m1 = 1.49 | 1003.26
333.16 K, 1604 kPa, m1 = 1.887 | 1020.71
333.16 K, 5024 kPa, m1 = 0.3043 | 806.15
333.16 K, 10325 kPa, m1 = 0.3043 | 811.46
333.16 K, 14730 kPa, m1 = 0.4384 | 835.35
333.16 K, 14913 kPa, m1 = 0.9305 | 905.9
333.16 K, 15014 kPa, m1 = 0.05681 | 778.76
333.16 K, 29941 kPa, m1 = 0.3043 | 828.93
333.16 K, 30014 kPa, m1 = 1.887 | 1047.6
333.16 K, 35068 kPa, m1 = 0.05681 | 795.79
333.16 K, 39745 kPa, m1 = 0.3043 | 836.38
333.16 K, 39787 kPa, m1 = 0.1696 | 816.47
333.16 K, 39824 kPa, m1 = 0.4384 | 855.99
333.17 K, 1074 kPa, m1 = 0.4384 | 821.64
333.17 K, 25080 kPa, m1 = 0.9305 | 915
333.17 K, 39803 kPa, m1 = 0.9305 | 926.52
333.17 K, 39921 kPa, m1 = 0.05681 | 799.36
333.18 K, 9721 kPa, m1 = 0.1696 | 791.08
333.18 K, 14944 kPa, m1 = 0.1696 | 796.06
333.18 K, 19908 kPa, m1 = 0.1696 | 800.57
333.18 K, 19971 kPa, m1 = 1.887 | 1038.86
333.18 K, 25143 kPa, m1 = 1.887 | 1043.47
333.18 K, 29806 kPa, m1 = 0.1696 | 808.92
333.18 K, 34946 kPa, m1 = 0.1696 | 812.92
333.2 K, 24905 kPa, m1 = 0.1696 | 804.89
353.12 K, 1215 kPa, m1 = 0.1696 | 762.79
353.12 K, 4885 kPa, m1 = 0.9305 | 876.1
353.12 K, 24736 kPa, m1 = 0.4384 | 827.02
353.12 K, 29724 kPa, m1 = 0.4384 | 831.58
353.12 K, 34818 kPa, m1 = 0.1696 | 796.87
353.12 K, 40086 kPa, m1 = 0.9305 | 910.04
353.13 K, 19976 kPa, m1 = 0.4384 | 822.41
353.13 K, 29922 kPa, m1 = 1.887 | 1029.35
353.13 K, 34919 kPa, m1 = 0.9305 | 905.88
353.13 K, 35245 kPa, m1 = 0.05681 | 780.23
353.14 K, 5032 kPa, m1 = 0.3043 | 786.89
353.14 K, 5065 kPa, m1 = 0.05681 | 750.01
353.14 K, 9866 kPa, m1 = 0.1696 | 772.71
353.14 K, 9945 kPa, m1 = 1.887 | 1009.26
353.14 K, 19983 kPa, m1 = 0.1696 | 783.31
353.14 K, 25841 kPa, m1 = 0.3043 | 808.62
353.14 K, 34738 kPa, m1 = 1.887 | 1033.52
353.14 K, 39852 kPa, m1 = 0.3043 | 820.61
353.15 K, 1306 kPa, m1 = 0.9305 | 871.91
353.15 K, 1451 kPa, m1 = 0.05681 | 745.7
353.15 K, 1574 kPa, m1 = 0.3043 | 782.83
353.15 K, 1687 kPa, m1 = 1.49 | 948.01
353.15 K, 5032 kPa, m1 = 1.49 | 951.99
353.15 K, 10024 kPa, m1 = 0.05681 | 755.67
353.15 K, 10024 kPa, m1 = 1.49 | 957.68
353.15 K, 10145 kPa, m1 = 0.3043 | 792.67
353.15 K, 15624 kPa, m1 = 1.49 | 963.72
353.15 K, 19924 kPa, m1 = 0.05681 | 766.16
353.15 K, 19957 kPa, m1 = 1.49 | 968.14
353.15 K, 20412 kPa, m1 = 0.3043 | 803.4
353.15 K, 25214 kPa, m1 = 1.49 | 973.21
353.15 K, 29658 kPa, m1 = 1.49 | 977.25
353.15 K, 29952 kPa, m1 = 0.3043 | 812.36
353.15 K, 30014 kPa, m1 = 0.05681 | 775.72
353.15 K, 34984 kPa, m1 = 1.49 | 981.78
353.15 K, 39958 kPa, m1 = 1.49 | 985.72
353.15 K, 39984 kPa, m1 = 0.05681 | 784.05
353.16 K, 4839 kPa, m1 = 0.1696 | 767.04
353.16 K, 9987 kPa, m1 = 0.9305 | 881.84
353.16 K, 15412 kPa, m1 = 0.05681 | 761.52
353.16 K, 15624 kPa, m1 = 0.3043 | 798.54
353.16 K, 24888 kPa, m1 = 0.1696 | 788.05
353.16 K, 34658 kPa, m1 = 0.3043 | 816.41
353.16 K, 34826 kPa, m1 = 0.4384 | 835.96
353.16 K, 39714 kPa, m1 = 1.887 | 1037.55
353.17 K, 4861 kPa, m1 = 0.4384 | 806.08
353.17 K, 14799 kPa, m1 = 0.1696 | 778.02
353.17 K, 14872 kPa, m1 = 1.887 | 1014.63
353.17 K, 19935 kPa, m1 = 0.9305 | 892.23
353.17 K, 24932 kPa, m1 = 0.05681 | 771.05
353.17 K, 29746 kPa, m1 = 0.1696 | 792.5
353.17 K, 39702 kPa, m1 = 0.1696 | 800.82
353.18 K, 9743 kPa, m1 = 0.4384 | 811.63
353.18 K, 14964 kPa, m1 = 0.9305 | 887.17
353.18 K, 29738 kPa, m1 = 0.9305 | 901.43
353.19 K, 1518 kPa, m1 = 0.4384 | 802.12
353.19 K, 19828 kPa, m1 = 1.887 | 1019.76
353.19 K, 24834 kPa, m1 = 0.9305 | 896.96
353.19 K, 39796 kPa, m1 = 0.4384 | 839.94
353.2 K, 1878 kPa, m1 = 1.887 | 999.87
353.2 K, 4878 kPa, m1 = 1.887 | 1003.45
353.2 K, 24815 kPa, m1 = 1.887 | 1024.64
353.21 K, 14513 kPa, m1 = 0.4384 | 816.8
373.12 K, 1190 kPa, m1 = 0.4384 | 780.46
373.12 K, 1697 kPa, m1 = 1.887 | 977.46
373.12 K, 5014 kPa, m1 = 1.887 | 981.85
373.12 K, 9878 kPa, m1 = 0.4384 | 791.75
373.12 K, 29863 kPa, m1 = 0.1696 | 775.41
373.12 K, 29926 kPa, m1 = 1.887 | 1010.28
373.12 K, 29956 kPa, m1 = 0.4384 | 814.15
373.13 K, 4952 kPa, m1 = 0.05681 | 729.35
373.13 K, 4965 kPa, m1 = 0.1696 | 746.64
373.13 K, 9897 kPa, m1 = 1.887 | 988.07
373.13 K, 14946 kPa, m1 = 1.887 | 994.16
373.13 K, 20065 kPa, m1 = 1.887 | 1000
373.13 K, 24795 kPa, m1 = 0.4384 | 808.88
373.13 K, 24847 kPa, m1 = 0.1696 | 770.29
373.14 K, 1612 kPa, m1 = 0.1696 | 742.13
